Assay results as given in ChEMBL document CHEMBL5316285 (J Med Chem, 2023).
The source made the active and inactive calls. The calls are words filed in the database; no cut-off is given here.

Columns and labels:
[1] = Tmax in Sprague-Dawley rat plasma at 5 mg/kg, iv by LC-MS/MS analysis; assay type: ADME, organism-based; conditions: time 0.083-24 hrs
A2780 [2] = test: Antitumor activity against human A2780 cells xenografted in nude mouse assessed as necrotic tumor cells at 2 uM/Kg, IV once every 3 days upto 21 days relative by hematoxylin and eosin staining analysis; assay type: functional, cell-based; conditions: time 21.0 day
[3] = Cmax in Sprague-Dawley rat plasma at 5 mg/kg, iv after 0.083 to 24 hrs by LC-MS/MS analysis; assay type: ADME, organism-based; parameters: dose 5 mg/kg, time upper 24 hrs, time lower 0.083 hrs, route iv
A2780 [4] = test: Antitumor activity against human A2780 cells xenografted in nude mouse assessed as reduction in Ki67 expression in tumor tissue at 2 uM/Kg, IV once every 3 days upto 21 days relative by immuno histochemical analysis; assay type: functional, cell-based; conditions: time 21.0 day
[5] = Toxicity in nude mouse xenografted with human A2780 cells assessed as pathological damage in kidney at 2 uM/Kg, IV once every 3 days upto 21 days by hematoxylin and eosin staining analysis; assay type: tissue-based; conditions: 504 h, time 21 day
[6] = Retinal toxicity in nude mouse xenografted with human A2780 cells at 2 uM/Kg, IV once every 3 days upto 21 days by microscopic analysis; conditions: 504 h, time 21 day
[7] = Cmax in mouse plasma at 5 mg/kg, iv after 0.083 to 24 hrs by LC-MS/MS analysis; assay type: ADME, organism-based; parameters: time upper 24 hrs, dose 5 mg/kg, time lower 0.083 hrs, route iv
[8] = biological target: T1, Nicotinamide phosphoribosyltransferase (Homo sapiens, UniProt P43490); test: (§1) Competitive binding activity at NAMPT in human A2780 cells assessed as blocking of NAMPT degradation pretreated with MG132 for 2 hrs followed by compound addition at 10 nM measured after 24 hrs by Western blotting analysis; assay type: cell-based
Target sequence in this assay (P43490 whole entry, looked up): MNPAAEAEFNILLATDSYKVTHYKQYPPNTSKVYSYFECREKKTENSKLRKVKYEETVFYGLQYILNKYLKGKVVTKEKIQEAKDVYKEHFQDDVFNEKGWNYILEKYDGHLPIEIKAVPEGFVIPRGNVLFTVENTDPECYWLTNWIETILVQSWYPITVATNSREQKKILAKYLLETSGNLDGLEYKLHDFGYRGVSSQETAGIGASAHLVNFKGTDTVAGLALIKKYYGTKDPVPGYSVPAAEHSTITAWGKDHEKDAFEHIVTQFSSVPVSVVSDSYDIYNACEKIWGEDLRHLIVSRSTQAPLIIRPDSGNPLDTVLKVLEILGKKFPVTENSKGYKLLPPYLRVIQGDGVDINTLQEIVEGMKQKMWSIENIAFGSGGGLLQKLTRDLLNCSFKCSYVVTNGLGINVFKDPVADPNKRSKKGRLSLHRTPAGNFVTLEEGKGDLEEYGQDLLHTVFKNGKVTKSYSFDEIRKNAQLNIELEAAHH

[9] = Toxicity in nude mouse xenografted with human A2780 cells assessed as loss in body weight at 2 uM/Kg, IV once every 3 days upto 21 days; conditions: 504 h, time 21 day
[10] = MRT in Sprague-Dawley rat plasma at 20 mg/kg, IP after 0.083 to 24 hrs by LC-MS/MS analysis; assay type: ADME, organism-based; conditions: time 0.083-24 hrs
[11] = AUC in mouse plasma at 5 mg/kg, iv after 0.083 to 24 hrs by LC-MS/MS analysis; assay type: ADME, organism-based; parameters: time lower 0.083 hrs, dose 5 mg/kg, time upper 24 hrs, route iv
[12] = biological target: von Hippel-Lindau disease tumor suppressor (Homo sapiens) (UniProt P40337); test: Binding affinity to VHL in human A2780 cells incubated at 10 uM measured from 63 to 75 degreeC for 7 hrs by cellular thermal shift assay; assay type: cell-based
Chain of von Hippel-Lindau disease tumor suppressor (Homo sapiens) (P40337 whole entry, looked up): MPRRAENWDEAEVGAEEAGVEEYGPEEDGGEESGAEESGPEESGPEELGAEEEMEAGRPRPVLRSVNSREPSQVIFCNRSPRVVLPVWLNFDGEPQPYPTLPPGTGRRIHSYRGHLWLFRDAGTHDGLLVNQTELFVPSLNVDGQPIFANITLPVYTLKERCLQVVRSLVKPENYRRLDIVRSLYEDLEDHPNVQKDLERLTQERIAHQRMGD

[13] = Half life in Sprague-Dawley rat plasma at 5 mg/kg, iv by LC-MS/MS analysis; assay type: ADME, organism-based
[14] = biological target: T1, Nicotinamide phosphoribosyltransferase; test: as §1, with “100 uM of (2S,4R)-1-((S)-2-acetamido-3,3-dimethylbutanoyl)-4-hydroxy-N-((S)-1-(4-(4-methylthiazol-5-yl)phenyl)ethyl)pyrrolidine-2-carboxamide” for “MG132”; assay type: cell-based
Target sequence in this assay (P43490 whole entry, looked up): as the sequence (P43490 whole entry, looked up) above

[15] = biological target: T2, von Hippel-Lindau disease tumor suppressor/Nicotinamide phosphoribosyltransferase (Homo sapiens, UniProt P43490+P40337); test: Protac activity at VHL/NAMPT in human A2780 cells assessed as reduction of NAMPT protein level at 10 nM measured after 24 hrs by Western blotting analysis; assay type: cell-based
Target sequence in this assay (P40337 whole entry, looked up): as the sequence (P40337 whole entry, looked up) above
Target sequence in this assay (P43490 whole entry, looked up): as the sequence (P43490 whole entry, looked up) above

A2780 [16] = test: Antitumor activity against human A2780 cells xenografted in nude mouse assessed as tumor growth inhibition at 2 uM/Kg, IV once every 3 days upto 21 days relative to control; assay type: functional; conditions: time 21 day, at 2 µmol/kg
[17] = AUC in Sprague-Dawley rat plasma at 5 mg/kg, iv after 0.083 to 24 hrs by LC-MS/MS analysis; assay type: ADME, organism-based; parameters: dose 5 mg/kg, time upper 24 hrs, time lower 0.083 hrs, route iv
[18] = biological target: T1, Nicotinamide phosphoribosyltransferase; test: Competitive binding activity at NAMPT in human A2780 cells assessed as blocking of NAMPT degradation pretreated with MLN4924 for 2 hrs followed by compound addition at 10 nM measured after 24 hrs by Western blotting analysis; assay type: cell-based
Target sequence in this assay (P43490 whole entry, looked up): as above

[19] = MRT in Sprague-Dawley rat plasma at 5 mg/kg, iv after 0.083 to 24 hrs by LC-MS/MS analysis; assay type: ADME, organism-based; conditions: time 0.083-24 hrs
[20] = biological target: T1, Nicotinamide phosphoribosyltransferase; test: Competitive binding activity at NAMPT in human A2780 cells assessed as blocking of NAMPT degradation pretreated with epoxomicin for 2 hrs followed by compound addition at 10 nM measured after 24 hrs by Western blotting analysis; assay type: cell-based
Target sequence in this assay (P43490 whole entry, looked up): as above

[21] = biological target: T2, von Hippel-Lindau disease tumor suppressor/Nicotinamide phosphoribosyltransferase; test: Protac activity at VHL/NAMPT in human A2780 cells assessed as induction of NAMPT degradation measured at 0.005 to 10 microM after 24 hrs by Western blotting analysis; assay type: cell-based; conditions: dose 0.005-10 µM
Target sequence in this assay (P40337 whole entry, looked up): as the sequence (P40337 whole entry, looked up) above
Target sequence in this assay (P43490 whole entry, looked up): as the sequence (P43490 whole entry, looked up) above

[22] = Toxicity in nude mouse xenografted with human A2780 cells assessed as pathological damage in lung at 2 uM/Kg, IV once every 3 days upto 21 days by hematoxylin and eosin staining analysis; assay type: tissue-based; conditions: 504 h, time 21 day
A2780 [23] = test: Downregulation of NAD+ in human A2780 cells treated upto 1000 nM for 24 hrs by chromogen based assay; assay type: functional, cell-based
[24] = biological target: T1, Nicotinamide phosphoribosyltransferase; test: Competitive binding activity at NAMPT in human A2780 cells assessed as blocking of NAMPT degradation pretreated with 200 nM of 1-(4-(piperidin-1-ylsulfonyl)phenyl)-3-(pyridin-3-ylmethyl)thiourea for 2 hrs followed by compound addition at 10 nM measured after 24 hrs by Western blotting analysis; assay type: cell-based
Target sequence in this assay (P43490 whole entry, looked up): as above

A2780 [25] = test: Antitumor activity against human A2780 cells xenografted in nude mouse assessed as reduction in NAMPT protein level in tumor tissue at 2 uM/Kg, IV after 3 days by immuno histochemical analysis; assay type: functional, cell-based; conditions: time 3.0 day
[26] = biological target: T2, von Hippel-Lindau disease tumor suppressor/Nicotinamide phosphoribosyltransferase; test: Protac activity at VHL/NAMPT in human A2780 cells assessed as induction of NAMPT degradation measured at 10 nM; assay type: cell-based; conditions: time <= 24.0 hrs, TDE = time-dependent effect
Target sequence in this assay (P40337 whole entry, looked up): as the sequence (P40337 whole entry, looked up) above
Target sequence in this assay (P43490 whole entry, looked up): as the sequence (P43490 whole entry, looked up) above

[27] = Toxicity in nude mouse xenografted with human A2780 cells assessed as pathological damage in spleen at 2 uM/Kg, IV once every 3 days upto 21 days by hematoxylin and eosin staining analysis; assay type: tissue-based; conditions: 504 h, time 21 day
[28] = biological target: T1, Nicotinamide phosphoribosyltransferase; test: Inhibition of NAMPT (unknown origin) using NAM as substrate preincubated for 5 mins followed by substrate addition measured after 15 mins in presence of ATP by fluorescence based microplate reader analysis
Target sequence in this assay (P43490 whole entry): as the sequence (P43490 whole entry, looked up) above

[29] = Cmax in Sprague-Dawley rat plasma at 20 mg/kg, IP after 0.083 to 24 hrs by LC-MS/MS analysis; assay type: ADME, organism-based; parameters: time lower 0.083 hrs, dose 20 mg/kg, time upper 24 hrs, route ip
[30] = AUC in Sprague-Dawley rat plasma at 20 mg/kg, IP after 0.083 to 24 hrs by LC-MS/MS analysis; assay type: ADME, organism-based; parameters: dose 20 mg/kg, time 0.083-24 hrs, route ip
[31] = Toxicity in nude mouse xenografted with human A2780 cells assessed as pathological damage in liver at 2 uM/Kg, IV once every 3 days upto 21 days by hematoxylin and eosin staining analysis; assay type: tissue-based; conditions: 504 h, time 21 day
A2780 [32] = test: Antiproliferative activity against human A2780 cells incubated for 72 hrs in carbon-dioxide atmosphere measured by cell counting kit-8 method; assay type: functional, cell-based; conditions: A2780, 72 h
CT26 = test: Antiproliferative activity against mouse CT26 cells; assay type: functional, cell-based
[33] = Tmax in Sprague-Dawley rat plasma at 20 mg/kg, IP by LC-MS/MS analysis; assay type: ADME, organism-based
[34] = Half life in Sprague-Dawley rat plasma at 20 mg/kg, IP by LC-MS/MS analysis; assay type: ADME, organism-based
[35] = Cmax in mouse plasma at 20 mg/kg, IP after 0.083 to 24 hrs by LC-MS/MS analysis; assay type: ADME, organism-based; parameters: time upper 24 hrs, time lower 0.083 hrs, dose 20 mg/kg, route ip
[36] = biological target: T2, von Hippel-Lindau disease tumor suppressor/Nicotinamide phosphoribosyltransferase; test: Protac activity at VHL/NAMPT in human A2780 cells assessed as reduction of NAMPT protein level at greater than 0.37 uM measured after 24 hrs by Western blotting analysis; assay type: cell-based
Target sequence in this assay (P40337 whole entry, looked up): as the sequence (P40337 whole entry, looked up) above
Target sequence in this assay (P43490 whole entry, looked up): as the sequence (P43490 whole entry, looked up) above

[37] = biological target: T1, Nicotinamide phosphoribosyltransferase; test: Binding affinity to NAMPT in human A2780 cells incubated at 10 uM measured from 63 to 75 degreeC for 7 hrs by cellular thermal shift assay; assay type: cell-based
Target sequence in this assay (P43490 whole entry, looked up): as above

[38] = biological target: T1, Nicotinamide phosphoribosyltransferase; test: Competitive binding activity at NAMPT in human A2780 cells assessed as blocking of NAMPT degradation pretreated with carfilzomib for 2 hrs followed by compound addition at 10 nM measured after 24 hrs by Western blotting analysis; assay type: cell-based
[39] = biological target: T2, von Hippel-Lindau disease tumor suppressor/Nicotinamide phosphoribosyltransferase; test: Protac activity at VHL/NAMPT in human A2780 cells assessed as degradation of NAMPT using NAM as substrate preincubated for 5 mins followed by substrate addition measured after 5 mins in presence of ATP by luminesence based microplate reader analysis; assay type: cell-based
Target sequence in this assay (P43490 whole entry): as the sequence (P43490 whole entry, looked up) above
Target sequence in this assay (P40337 whole entry): as the sequence (P40337 whole entry, looked up) above

[40] = Half life in mouse plasma at 5 mg/kg, iv by LC-MS/MS analysis; assay type: ADME, organism-based
[41] = Toxicity in nude mouse xenografted with human A2780 cells assessed as pathological damage in heart at 2 uM/Kg, IV once every 3 days upto 21 days by hematoxylin and eosin staining analysis; assay type: tissue-based; conditions: 504 h, time 21 day

SMILES: Cc1ncsc1-c1ccc([C@H](C)NC(=O)[C@@H]2C[C@@H](O)CN2C(=O)[C@@H](NC(=O)CCCCCCCCN2CCN(S(=O)(=O)c3ccc(NC(=O)NCc4cccnc4)cc3)CC2)C(C)(C)C)cc1
- Tmax [1]: 4.8 min
- Activity (A2780 [2]): Active
- Cmax [3]: 3.19 µg/mL
- Activity (A2780 [4]): Active
- Activity [5]: Non-Toxic
- Activity [6]: Non-Toxic
- Cmax [7]: 1.08 µg/mL
- Activity [8]: Active
- Activity [9]: Non-Toxic
- MRT [10]: 7.51 h
- AUC [11]: 0.477 µg·h/mL
- Activity [12]: Active
- half-life [13]: 6.53 h
- Activity [14]: Active
- Activity [15]: Active
- TGI (A2780 [16]): 88.1%
- AUC [17]: 1.31 µg·h/mL
- Activity [18]: Active
- MRT [19]: 4.45 h
- Activity [20]: Active
- Activity [21]: Dose-Dependent Effect
- Activity [22]: Non-Toxic
- Activity (A2780 [23]): Active
- Activity [24]: Active
- Activity (A2780 [25]): Active
- Activity [26]: Tde
- Activity [27]: Non-Toxic
- IC50 [28]: 0.15 µM
- Cmax [29]: 0.249 µg/mL
- AUC [30]: 1.74 µg·h/mL
- Activity [31]: Non-Toxic
- IC50 (A2780 [32]): 0.0015 µM
- IC50 (CT26): 0.67 µM
- Tmax [33]: 5 h
- half-life [34]: 5.41 h
- Cmax [35]: 0.417 µg/mL
- Activity [36]: inactive
- Activity [37]: Active
- Activity [38]: Active
- DC50 [39]: < 0.00017 µM
- half-life [40]: 3.72 h
- Activity [41]: Non-Toxic
